pIC50: −log10 of the molar value. Calls of active or inactive are those of the source. The rule behind the calls is not given here.
Key:
Histone deacetylase 2 [1] = molecular target: T1, Histone deacetylase 2 (Homo sapiens, UniProt Q92769); experiment: Inhibition of full length recombinant C-terminal FLAG-tagged human HDAC2 expressed in baculovirus-infected Sf9 cells at 1 mM measured for 2 hrs by fluorescence-based assay relative to control
Histone deacetylase 2 [2] = molecular target: T1, Histone deacetylase 2; experiment: Inhibition of full length recombinant C-terminal FLAG-tagged human HDAC2 expressed in baculovirus-infected Sf9 cells at 2 mM measured for 2 hrs by fluorescence-based assay relative to control
Histone deacetylase 2 [3] = molecular target: T1, Histone deacetylase 2; experiment: Inhibition of full length recombinant C-terminal FLAG-tagged human HDAC2 expressed in baculovirus-infected Sf9 cells measured for 2 hrs by fluorescence-based assay
[4] = Lipophilicity, log D of the compound at pH 7.4; assay type: physicochemical; settings: buffer
[5] = AUC (0 to infinity) in C57BL/6 mouse plasma at 100 mg/kg, po measured upto 24 hrs by LC-ESI-MS/MS analysis; assay type: ADME, organism-based; design: time < 24 hrs, dose 100 mg/kg, route po
[6] = AUC (0 to infinity) in C57BL/6 mouse plasma at 30 mg/kg, po measured upto 24 hrs by LC-ESI-MS/MS analysis; assay type: ADME, organism-based; design: time < 24 hrs, dose 30 mg/kg, route po
SK-N-SH [7] = experiment: Inhibition of […] in human SK-N-SH cells assessed as increase in histone H3K9 acetylation level at 3 to 12 uM measured after 48 hrs by immunochemical detection based analysis; assay type: cell-based; settings: dose 3-12 µM
[8] = Cmax in C57BL/6 mouse brain at 30 mg/kg, po measured upto 24 hrs by LC-ESI-MS/MS analysis; assay type: ADME, organism-based; design: dose 30 mg/kg, time < 24 hrs, route po
Mus musculus = experiment: In vivo inhibition of HDAC2 in C57BL/6 mouse assessed as increase in histone H4K12 acetylation in brain at 100 mg/kg, po measured after 4 hrs by immunochemical detection method; assay type: functional, organism-based
[9] = Cmax in C57BL/6 mouse plasma at 30 mg/kg, po measured upto 24 hrs by LC-ESI-MS/MS analysis; assay type: ADME, organism-based; design: time < 24 hrs, dose 30 mg/kg, route po
[10] = Half life in C57BL/6 mouse brain at 30 mg/kg, po measured upto 24 hrs by LC-ESI-MS/MS analysis; assay type: ADME, organism-based
[11] = Half life in C57BL/6 mouse brain at 100 mg/kg, po measured upto 6 hrs by LC-ESI-MS/MS analysis; assay type: ADME, organism-based
[12] = Cmax in C57BL/6 mouse brain at 100 mg/kg, po measured upto 6 hrs by LC-ESI-MS/MS analysis; assay type: ADME, organism-based; design: dose 100 mg/kg, time < 6 hrs, route po
[13] = Cmax in C57BL/6 mouse plasma at 100 mg/kg, po measured upto 24 hrs by LC-ESI-MS/MS analysis; assay type: ADME, organism-based; design: time < 24 hrs, dose 100 mg/kg, route po
[14] = Unbound brain-to-plasma concentration ratio in C57BL/6 mouse by LC-MS/MS analysis; assay type: ADME; settings: read-out: K(p,uu,brain)
[15] = Half life in C57BL/6 mouse plasma at 30 mg/kg, po measured upto 24 hrs by LC-ESI-MS/MS analysis; assay type: ADME, organism-based
SK-N-SH [16] = experiment: Inhibition of […] in human SK-N-SH cells assessed as increase in histone H4K12 acetylation level at 3 to 12 uM measured after 48 hrs by immunochemical detection based analysis; assay type: cell-based; settings: dose 3-12 µM
[17] = Half life in C57BL/6 mouse plasma at 100 mg/kg, po measured upto 24 hrs by LC-ESI-MS/MS analysis; assay type: ADME, organism-based
[18] = AUC (0 to infinity) in C57BL/6 mouse brain at 100 mg/kg, po measured upto 6 hrs by LC-ESI-MS/MS analysis; assay type: ADME, organism-based; design: dose 100 mg/kg, time < 6 hrs, route po; settings: in vivo
[19] = AUC (0 to infinity) in C57BL/6 mouse brain at 30 mg/kg, po measured upto 24 hrs by LC-ESI-MS/MS analysis; assay type: ADME, organism-based; design: dose 30 mg/kg, time < 24 hrs, route po; settings: in vivo

T1 sequence (Q92769 whole entry): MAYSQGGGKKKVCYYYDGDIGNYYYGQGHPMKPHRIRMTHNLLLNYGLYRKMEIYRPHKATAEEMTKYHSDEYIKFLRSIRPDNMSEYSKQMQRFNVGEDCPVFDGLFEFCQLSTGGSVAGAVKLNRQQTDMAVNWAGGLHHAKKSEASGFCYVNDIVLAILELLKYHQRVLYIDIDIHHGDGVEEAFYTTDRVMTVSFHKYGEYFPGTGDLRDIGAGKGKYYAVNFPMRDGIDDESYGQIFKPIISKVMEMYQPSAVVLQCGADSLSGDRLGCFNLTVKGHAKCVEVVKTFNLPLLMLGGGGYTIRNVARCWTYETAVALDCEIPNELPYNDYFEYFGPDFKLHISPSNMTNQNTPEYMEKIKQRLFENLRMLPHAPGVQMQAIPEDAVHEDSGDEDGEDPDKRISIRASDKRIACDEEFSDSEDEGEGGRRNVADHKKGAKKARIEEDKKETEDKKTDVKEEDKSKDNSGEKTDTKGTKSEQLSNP

O=C(O)Cc1ccccc1
inhibition (Histone deacetylase 2 [1]): 40%

CN(C)C(=O)[C@H](N)CCc1ccccc1
inhibition (Histone deacetylase 2 [2]): 64%

N#Cc1cccnc1N1CCN(C(=O)[C@H]2C[C@@H](c3cccc(Cl)c3)CN2)CC1
pIC50 (Histone deacetylase 2 [3]): 6.07

N#Cc1cccnc1N1CCN(C(=O)[C@H]2C[C@@H](c3ccccc3)CN2)CC1
pIC50 (Histone deacetylase 2 [3]): 5.74

O=C([C@H]1C[C@@H](c2ccccc2)CN1)N1CCCC1
pIC50 (Histone deacetylase 2 [3]): 4.59

CN(C)C(=O)C(N)Cc1ccc(F)cc1 (centres undefined)
pIC50 (Histone deacetylase 2 [3]): 3.00
inhibition (Histone deacetylase 2 [1]): 58%

O=C([C@H]1C[C@@H](c2cccc(Cl)c2)CN1)N1CCN(c2nccc3ccsc23)CC1
logD [4]: 3.9
AUC(0-inf) [5]: 18500 ng·h/mL
AUC(0-inf) [6]: 4200 ng·h/mL
pIC50 (Histone deacetylase 2 [3]): 6.30
inhibition (SK-N-SH [7]): Active
Cmax [8]: 2300 ng/g
inhibition (Mus musculus): Active
Cmax [9]: 2400 ng/mL
half-life [10]: 54 min
half-life [11]: 162 min
Cmax [12]: 3400 ng/g
Cmax [13]: 4000 ng/mL
Kp uu [14]: 0.36
half-life [15]: 66 min
inhibition (SK-N-SH [16]): Active
half-life [17]: 210 min
AUC [18]: 13.1 µg·h/g
AUC [19]: 4 µg·h/g

Cc1cc(O)cc(=O)o1
inhibition (Histone deacetylase 2 [1]): 4%

N[C@H](CCc1ccccc1)C(=O)N1CCCC1
pIC50 (Histone deacetylase 2 [3]): 3.96

O=C([C@H]1C[C@@H](c2ccccc2)CN1)N1CCN(c2nccc3ccsc23)CC1
pIC50 (Histone deacetylase 2 [3]): 5.77

O=C([C@H]1C[C@@H](c2cccc(Cl)c2)CN1)N1Cc2ccccc2C1
pIC50 (Histone deacetylase 2 [3]): 5.55

O=C([C@H]1C[C@@H](c2ccccc2)CN1)N1Cc2ccccc2C1
pIC50 (Histone deacetylase 2 [3]): 5.19

O=C1CCC(c2ccc([C@H]3CN[C@@H](C(=O)N4Cc5ccccc5C4)C3)cc2)N1 (stereo in doubt; 10)
pIC50 (Histone deacetylase 2 [3]): 4.59

O=C1CCC(c2ccc([C@H]3CN[C@@H](C(=O)N4Cc5ccccc5C4)C3)cc2)N1 (stereo in doubt; 11)
pIC50 (Histone deacetylase 2 [3]): 4.74

O=C([C@H]1C[C@@H](c2ccc(Cl)cc2)CN1)N1Cc2ccccc2C1
pIC50 (Histone deacetylase 2 [3]): 5.40

O=C1CCC(c2ccc(Cl)cc2)N1 (centres undefined)
inhibition (Histone deacetylase 2 [1]): 9%

Source: ChEMBL document CHEMBL5113540, “Fragment-Based Discovery of a Novel, Brain Penetrant, Orally Active HDAC2 Inhibitor” (ACS Med Chem Lett, 2022)
